Series [1] has as its target T1, Tyrosine-protein kinase receptor UFO (Homo sapiens, UniProt P30530).
T1 sequence (P30530 whole entry): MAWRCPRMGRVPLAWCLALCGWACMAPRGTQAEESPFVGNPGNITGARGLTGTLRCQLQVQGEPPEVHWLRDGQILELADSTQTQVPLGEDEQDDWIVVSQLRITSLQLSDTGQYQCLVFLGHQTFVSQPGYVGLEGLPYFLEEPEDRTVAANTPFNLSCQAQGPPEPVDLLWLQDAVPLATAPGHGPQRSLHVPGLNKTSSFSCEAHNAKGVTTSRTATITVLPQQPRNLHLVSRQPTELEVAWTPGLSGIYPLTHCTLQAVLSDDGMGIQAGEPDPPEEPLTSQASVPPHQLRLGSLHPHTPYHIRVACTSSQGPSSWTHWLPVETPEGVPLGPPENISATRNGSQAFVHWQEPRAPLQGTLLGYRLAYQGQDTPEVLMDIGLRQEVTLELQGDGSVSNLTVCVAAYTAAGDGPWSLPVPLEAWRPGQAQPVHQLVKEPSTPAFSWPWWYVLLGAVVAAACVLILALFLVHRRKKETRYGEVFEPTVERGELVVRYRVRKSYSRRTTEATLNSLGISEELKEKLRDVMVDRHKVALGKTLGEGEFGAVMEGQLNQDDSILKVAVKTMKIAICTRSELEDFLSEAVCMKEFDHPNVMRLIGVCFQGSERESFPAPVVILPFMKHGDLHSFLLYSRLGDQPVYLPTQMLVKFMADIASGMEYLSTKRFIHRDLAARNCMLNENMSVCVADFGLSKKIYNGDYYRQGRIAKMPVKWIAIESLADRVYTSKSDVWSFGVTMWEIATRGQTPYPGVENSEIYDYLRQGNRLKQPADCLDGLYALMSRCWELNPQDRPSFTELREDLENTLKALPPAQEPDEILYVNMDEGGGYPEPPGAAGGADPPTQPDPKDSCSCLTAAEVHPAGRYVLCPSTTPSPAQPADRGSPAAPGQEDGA
The series can be described thus: Inhibition of AXL (unknown origin) using poly [Glu, Tyr] 4:1 as substrate incubated for 60 mins in presence of ATP by ELISA. (In general: ELISA stands for enzyme-linked immunosorbent assay.)

Series [2] can be described thus: Tmax in ICR mouse at 3 mg/kg, po measured upto 24 hrs by LC-MS analysis. The note with it: in vivo. The format is ADME, organism-based.
The next series has as its system BaF3. Briefly: Antiproliferative activity against mouse BaF3/TEL-AXL cells incubated for 72 hrs by SRB or CCK8 assay. The following applies: BaF3, 72 h.
The nature of series [3]: AUC(0 to t) in Sprague-Dawley rat at 3 mg/kg, po measured upto 24 hrs by LC-MS analysis. The format is ADME, organism-based. Further details: route oral, dose 3 mg/kg, time <=24. The note with it: in vivo.
A short description of series [4]: Half life in Sprague-Dawley rat at 3 mg/kg, po measured upto 24 hrs by LC-MS analysis. The format is ADME, organism-based. The note with it: in vivo.
A short description of series [5]: AUC(0 to infinity) in ICR mouse at 1 mg/kg, iv measured upto 24 hrs by LC-MS analysis. The format is ADME, organism-based. Details: route intravenous, dose 1 mg/kg, time <=24. The following applies: in vivo.
The target in series [6] is Vascular endothelial growth factor receptor 1 (Homo sapiens, UniProt P17948). The series can be described thus: Inhibition of recombinant human FLT1 (783 to end residues) using KKKSPGEYVNIEFG as substrate incubated for 40 mins in presence of [gamma-33ATP] by scintillation counting based radiometry assay.
Series [7] deals with Tyrosine-protein kinase JAK1 (Homo sapiens, UniProt P23458). The series can be described thus: Inhibition of human JAK1 (866 to end residues) using GEEPLYWSFPAKKK as substrate after 40 mins in presence of [gamma-33ATP] by scintillation counting based radiometry assay.
Series [8] concerns the target Proto-oncogene tyrosine-protein kinase receptor Ret (Homo sapiens, UniProt P07949). Briefly: Inhibition of recombinant human Ret (658 to end residues) using KKKSPGEYVNIEFG as substrate incubated for 40 mins in presence of [gamma33P]ATP by scintillation counting based radiometry assay.
Series [9] addresses T2, Tyrosine-protein kinase receptor UFO (Mus musculus) (UniProt Q00993).
T2 sequence (whole entry): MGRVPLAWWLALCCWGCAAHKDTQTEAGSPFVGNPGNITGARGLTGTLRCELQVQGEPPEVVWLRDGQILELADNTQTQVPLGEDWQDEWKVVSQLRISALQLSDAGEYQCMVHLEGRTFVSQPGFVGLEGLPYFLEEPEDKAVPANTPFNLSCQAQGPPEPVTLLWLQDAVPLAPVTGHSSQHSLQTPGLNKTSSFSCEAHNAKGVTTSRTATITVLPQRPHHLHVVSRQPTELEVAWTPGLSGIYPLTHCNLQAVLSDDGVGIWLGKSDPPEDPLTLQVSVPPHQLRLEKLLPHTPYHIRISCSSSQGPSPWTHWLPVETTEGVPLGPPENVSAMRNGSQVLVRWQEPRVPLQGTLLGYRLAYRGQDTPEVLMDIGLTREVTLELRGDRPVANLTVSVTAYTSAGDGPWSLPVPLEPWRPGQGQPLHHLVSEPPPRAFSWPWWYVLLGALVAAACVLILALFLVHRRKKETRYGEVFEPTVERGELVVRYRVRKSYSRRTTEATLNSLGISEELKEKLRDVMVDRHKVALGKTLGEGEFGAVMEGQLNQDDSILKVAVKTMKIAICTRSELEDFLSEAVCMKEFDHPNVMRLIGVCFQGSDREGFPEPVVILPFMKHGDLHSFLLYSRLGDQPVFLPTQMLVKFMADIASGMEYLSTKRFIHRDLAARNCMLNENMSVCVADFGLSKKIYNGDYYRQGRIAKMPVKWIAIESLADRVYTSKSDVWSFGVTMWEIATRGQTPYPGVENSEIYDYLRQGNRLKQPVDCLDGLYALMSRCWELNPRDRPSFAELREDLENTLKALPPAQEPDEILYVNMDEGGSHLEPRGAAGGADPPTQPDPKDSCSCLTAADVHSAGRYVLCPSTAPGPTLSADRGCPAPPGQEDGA
The series can be described thus: Inhibition of AXL in mouse BaF3/TEL-AXL cells assessed as reduction in Gas6-induced phosphorylation of AKT at 0.5 to 50 nM preincubated for 2 hrs followed by Gas6 stimulation for 15 mins by Western blotting analysis. The format is cell-based. The note with it: dose 0.5-50 nM. (Immunoblotting shows a protein as a band on a membrane.)

Series [10] is described as follows: Antiproliferative activity against human JHH7 cells incubated for 72 hrs by SRB or CCK8 assay. The series is classed as functional, cell-based. The following applies: JHH7, 72 h. Background: Tetrazolium dyes change colour on reduction, which living cells bring about.
The next series relates to NCI-H1975. Briefly: Antiproliferative activity against human NCI-H1975 cells incubated for 72 hrs by SRB or CCK8 assay. The format is functional, cell-based. The note with it: NCI-H1975, 72 h.
The next series concerns HCC827. Briefly: Antiproliferative activity against human HCC827 cells incubated for 72 hrs by SRB or CCK8 assay. The format is functional, cell-based. The note with it: HCC827, 72 h.
The next series has as its system SNU-449. Briefly: Antiproliferative activity against human SNU-449 cells at 5 to 125 uM incubated for 72 hrs by SRB or CCK8 assay. The format is functional, cell-based. The following applies: dose 5-125 µM.
For the next series, the system named is U-87 MG. Briefly: Antitumor activity against human U-87MG cells xenografted in po dosed BALB/c nude mouse assessed as tumor growth inhibition administered once daily for 14 days by caliper method. The series is classed as functional, organism-based. The note with it: U-87MG ATCC, dose 5-100 mg/kg, time 14.0 day.
Series [11] in a line: Toxicity in BALB/c nude mouse assessed as reduction in body weight at 100 mg/kg, po administered once daily for 14 days. The series is classed as organism-based. The note with it: in vivo, 336 h, time 14 day.

Active and inactive are the calls of the source. The rule behind the calls is not given here.

Vascular endothelial growth factor receptor 1, sequence (P17948 whole entry): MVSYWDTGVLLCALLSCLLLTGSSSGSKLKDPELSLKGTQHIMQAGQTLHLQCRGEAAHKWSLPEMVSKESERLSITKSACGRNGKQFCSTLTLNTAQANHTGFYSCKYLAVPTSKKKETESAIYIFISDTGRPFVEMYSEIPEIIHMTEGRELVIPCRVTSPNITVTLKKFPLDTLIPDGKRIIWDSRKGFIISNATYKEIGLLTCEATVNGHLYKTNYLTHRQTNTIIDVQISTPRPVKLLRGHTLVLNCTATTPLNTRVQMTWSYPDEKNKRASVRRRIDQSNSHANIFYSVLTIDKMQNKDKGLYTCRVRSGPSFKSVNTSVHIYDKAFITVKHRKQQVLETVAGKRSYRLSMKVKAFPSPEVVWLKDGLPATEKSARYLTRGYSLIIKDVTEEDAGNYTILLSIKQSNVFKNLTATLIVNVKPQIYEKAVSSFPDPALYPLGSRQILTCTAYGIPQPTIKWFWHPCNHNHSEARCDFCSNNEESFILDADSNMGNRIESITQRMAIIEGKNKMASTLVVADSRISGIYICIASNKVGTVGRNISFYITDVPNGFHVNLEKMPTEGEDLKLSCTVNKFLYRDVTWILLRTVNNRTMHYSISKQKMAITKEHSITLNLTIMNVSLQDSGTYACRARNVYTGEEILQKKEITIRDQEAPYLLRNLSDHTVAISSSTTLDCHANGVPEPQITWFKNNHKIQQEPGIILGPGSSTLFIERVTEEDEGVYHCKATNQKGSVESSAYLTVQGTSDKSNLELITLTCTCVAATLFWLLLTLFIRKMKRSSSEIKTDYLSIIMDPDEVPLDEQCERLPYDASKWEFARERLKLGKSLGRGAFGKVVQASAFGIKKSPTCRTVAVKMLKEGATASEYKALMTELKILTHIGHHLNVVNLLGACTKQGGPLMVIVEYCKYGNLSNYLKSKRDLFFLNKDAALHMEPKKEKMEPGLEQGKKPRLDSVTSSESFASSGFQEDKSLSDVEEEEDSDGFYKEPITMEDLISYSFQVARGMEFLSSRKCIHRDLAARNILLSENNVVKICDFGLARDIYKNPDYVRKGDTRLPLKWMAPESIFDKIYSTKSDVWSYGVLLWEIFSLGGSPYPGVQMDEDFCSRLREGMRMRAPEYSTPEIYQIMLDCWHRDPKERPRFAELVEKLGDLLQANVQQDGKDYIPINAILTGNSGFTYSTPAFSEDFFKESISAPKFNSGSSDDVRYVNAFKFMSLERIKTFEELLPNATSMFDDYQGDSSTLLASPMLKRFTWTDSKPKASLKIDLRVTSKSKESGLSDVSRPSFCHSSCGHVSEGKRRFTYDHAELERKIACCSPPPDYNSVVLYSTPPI
Proto-oncogene tyrosine-protein kinase receptor Ret, sequence (P07949 whole entry): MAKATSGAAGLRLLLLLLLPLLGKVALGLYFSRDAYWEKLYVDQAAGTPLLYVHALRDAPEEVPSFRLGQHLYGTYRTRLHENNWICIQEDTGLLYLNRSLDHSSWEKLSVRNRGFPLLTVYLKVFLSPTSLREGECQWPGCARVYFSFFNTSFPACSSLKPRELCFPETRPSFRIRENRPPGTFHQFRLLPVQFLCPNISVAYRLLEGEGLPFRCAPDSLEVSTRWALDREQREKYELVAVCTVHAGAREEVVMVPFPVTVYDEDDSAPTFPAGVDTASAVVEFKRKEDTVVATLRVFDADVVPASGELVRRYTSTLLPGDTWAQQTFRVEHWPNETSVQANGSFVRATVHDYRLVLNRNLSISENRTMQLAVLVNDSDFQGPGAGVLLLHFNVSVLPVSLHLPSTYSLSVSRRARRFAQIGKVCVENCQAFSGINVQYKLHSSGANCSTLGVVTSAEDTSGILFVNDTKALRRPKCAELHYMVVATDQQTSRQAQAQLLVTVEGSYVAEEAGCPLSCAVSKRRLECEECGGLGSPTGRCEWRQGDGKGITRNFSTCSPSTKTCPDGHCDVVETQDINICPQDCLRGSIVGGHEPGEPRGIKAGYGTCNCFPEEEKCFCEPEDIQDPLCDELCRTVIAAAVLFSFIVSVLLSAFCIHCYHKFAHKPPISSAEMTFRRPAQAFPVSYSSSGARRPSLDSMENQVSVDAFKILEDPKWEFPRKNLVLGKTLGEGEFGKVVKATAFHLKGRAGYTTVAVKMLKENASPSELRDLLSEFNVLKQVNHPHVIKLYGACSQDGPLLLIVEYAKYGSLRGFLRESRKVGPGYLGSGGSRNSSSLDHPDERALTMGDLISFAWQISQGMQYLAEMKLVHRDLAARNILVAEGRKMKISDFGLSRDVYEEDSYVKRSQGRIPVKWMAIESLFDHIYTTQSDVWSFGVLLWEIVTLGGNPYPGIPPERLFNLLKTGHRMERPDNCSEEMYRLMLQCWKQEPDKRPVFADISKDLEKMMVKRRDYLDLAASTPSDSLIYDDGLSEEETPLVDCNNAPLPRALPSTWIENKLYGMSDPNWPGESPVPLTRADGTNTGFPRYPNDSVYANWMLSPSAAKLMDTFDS
Tyrosine-protein kinase JAK1, sequence (P23458 whole entry): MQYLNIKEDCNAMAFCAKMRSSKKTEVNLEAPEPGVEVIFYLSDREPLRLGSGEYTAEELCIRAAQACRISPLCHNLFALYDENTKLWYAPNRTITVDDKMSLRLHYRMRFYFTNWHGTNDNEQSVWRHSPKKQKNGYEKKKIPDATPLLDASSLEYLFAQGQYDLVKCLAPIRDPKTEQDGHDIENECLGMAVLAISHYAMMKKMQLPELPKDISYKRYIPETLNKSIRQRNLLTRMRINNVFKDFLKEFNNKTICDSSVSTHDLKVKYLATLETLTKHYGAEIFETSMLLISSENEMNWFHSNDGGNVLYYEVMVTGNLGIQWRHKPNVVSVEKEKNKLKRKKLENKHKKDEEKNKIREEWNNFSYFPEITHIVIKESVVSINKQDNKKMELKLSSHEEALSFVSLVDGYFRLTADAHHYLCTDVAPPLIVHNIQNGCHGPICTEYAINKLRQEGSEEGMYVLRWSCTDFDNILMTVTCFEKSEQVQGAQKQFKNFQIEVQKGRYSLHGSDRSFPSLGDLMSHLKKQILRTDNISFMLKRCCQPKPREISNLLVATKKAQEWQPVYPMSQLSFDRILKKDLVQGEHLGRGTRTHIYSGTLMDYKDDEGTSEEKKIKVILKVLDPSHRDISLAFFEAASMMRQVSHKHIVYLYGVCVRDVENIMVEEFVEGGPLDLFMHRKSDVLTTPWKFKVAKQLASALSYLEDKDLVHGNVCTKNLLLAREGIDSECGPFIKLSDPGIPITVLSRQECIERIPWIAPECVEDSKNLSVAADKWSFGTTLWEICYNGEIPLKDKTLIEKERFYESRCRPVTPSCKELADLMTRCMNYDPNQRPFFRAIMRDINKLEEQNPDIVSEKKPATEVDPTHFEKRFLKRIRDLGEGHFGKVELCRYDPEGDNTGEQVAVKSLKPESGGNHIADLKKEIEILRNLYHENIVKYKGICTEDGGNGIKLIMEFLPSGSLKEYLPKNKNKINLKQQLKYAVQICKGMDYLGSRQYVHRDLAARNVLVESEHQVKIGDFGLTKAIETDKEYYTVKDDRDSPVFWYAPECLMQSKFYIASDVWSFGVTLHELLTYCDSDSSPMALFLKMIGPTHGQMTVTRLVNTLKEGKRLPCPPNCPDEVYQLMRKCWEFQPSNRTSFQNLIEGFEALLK

As usually defined, the IC50 is the concentration needed to halve the response being measured. The Tmax is the time at which the peak concentration occurs. As usually defined, the AUC(0-t) is exposure summed from dosing to a finite time, without extrapolation to infinity. A high value points to more exposure. The half-life is the time in which the quantity being followed falls by half. Lower therefore signals fast loss. Broadly, the AUC(0-inf) is total exposure, with the tail of the curve extrapolated. Low readings indicate low exposure, high ones high exposure. Take `CC(C)n1cc(C(=O)Nc2ccc(Oc3ccnc(NC(=O)C4CC4)c3)c(F)c2)c(=O)n(-c2ccc(F)cc2)c1=O`: the IC50 in series [1] was 0.0009 µM; in the series on BaF3, less than 5 pM; in series [6], more than 1 µM; in series [7] it was more than 1 µM; in series [8], more than 1 µM; in [10], more than 10 µM. Besides, the IC50 in the series on NCI-H1975 and with HCC827 was more than 10 µM throughout. Besides, the Tmax in series [2] amounted to 1.67 h. The AUC(0-t) at 24 h in series [3] turned out to be 32600 ng·h/mL. Besides, the half-life in [4] is 13.8 h. Moreover, in [5], the AUC(0-inf) was found to be 7360 ng·h/mL. Besides, the inhibition entry in series [9] is “Active”. In the series on SNU-449, the outcome was inactive. Moreover, the Activity result was “Dose-Dependent Effect” in the series on U-87 MG and “Non-Toxic” in series [11].

The record behind these values is ChEMBL document CHEMBL4823249, “Discovery of a Pyrimidinedione Derivative as a Potent and Orally Bioavailable Axl Inhibitor” (J Med Chem, 2021).
